Patent US20220155314A1, “TROPHOBLAST STEM CELL, METHODS OF PREPARATION AND USES THEREOF” (Academia Sinica, priority 2020, published 2022)
Residues, ends and D or L forms follow the SMILES beside them. *: point of attachment. Cbz = O=C(OCc1ccccc1)*

Assays:
ΔNp63α = ΔNp63α stability in JEG3 cells (FSK with or without MG132); assay type: cell-based, human; details: 50 μM FSK 24 h in presence of MG132 (FIG. 3F)
Description: FIGS. 3A to 3I show reciprocal regulation of GCM1 and ΔNp63α activities in trophoblast differentiation. […] Scramble control, ΔNp63α-knockdown or GCM1-knockdown JEG3 cells were treated with or without 50 μM FSK for 24 h and then harvested for immunoblotting and quantitative RT-PCR analyses of SYN1, hCGβ, HTRA4 proteins or transcripts. Arrowhead denotes a non-specific band recognized by ΔNp63α Ab. […] Scramble control and ΔNp63α knockdown JEG3 cells were treated with or without 50 μM FSK for 48 h, followed by immunofluorescence microscopy with E-cadherin Ab. Syncytial margins are marked with stippled line. Cell fusion was quantified by fusion index. […] Mock and ΔNp63α-FLAG-expressing BeWo cells or scramble control and ΔNp63α-knockdown JEG3 cells were subjected to immunoblotting and quantitative RT-PCR analyses of RACK1 and GATA3 proteins or transcripts. […] Scramble control or ΔNp63α-knockdown JEG3 cells were transfected with pHTRA4-1 Kb with or without pGATA3-FLAG for 48 h, followed by luciferase assays. […] WT and GCM1-KO JEG3 cells were treated with or without 50 μM FSK for 24 hours and then harvested for immunoblotting and quantitative RT-PCR analyses of GCM1, ΔNp63α, hCGβ proteins and transcripts. […] Quantitation of band intensity was performed by densitometry analysis, and the relative ΔNp63α protein level was normalized by β-actin. […]

BeWo cells = assay: Expression of trophoblast stemness and differentiation genes in BeWo cells treated with EGF and chemical inhibitors; assay type: cell-based, human; details: 1 mM VPA with 20 μM MG132, 8 h (FIG. 6G)
Description: FIGS. 6A to 6I show the regulation of trophoblast stemness and differentiation by antagonism between ΔNp63α and GCM1. […] ITGA6-positive term CTBs were cultured in complete TS medium for 5 days and then maintained in the same medium or incomplete medium (vehicle alone without EGF and chemical inhibitors) for an additional 7 days. Cells were subjected to immunofluorescence microscopy of ΔNp63α, GCM1, and hCGβ. […] BeWo cells were incubated in complete or incomplete TS medium supplemented with the indicated growth factor or chemical inhibitor(s) for 24 h. Cells were harvested for quantitative RT-PCR analysis of the indicated stemness or differentiation genes. […] BeWo cells were treated with the indicated concentration of VPA for 24 hours and then harvested for immunoblotting and quantitative RT-PCR analyses of GCM1, ΔNp63α, and hCGβ. […] BeWo cells were transfected with 4XCSL-luciferase in the presence or absence of 2 mM VPA for 48 hours, followed by luciferase assays. […] 293T cells were transfected with pHA-GCM1 and pNotch1IC-FLAG for 48 hours, followed by coimmunoprecipitation analysis and confocal microscopy using FLAG and HA mAbs and GCM1 Ab. […] EGFP-positive mock or Notch1IC-FLAG-expressing BeWo cells were treated with or without 50 μM FSK for 24 h, followed by immunoblotting and quantitative RT-PCR analyses of GCM1, hCGβ or HTRA4. […] BeWo cells were treated with or without 1 mM VPA in the presence or absence of 20 μM MG132 for 8 h and then subjected to immunoblotting analysis of GCM1 and Notch1IC. […] The EGFP-positive mock or Notch1IC-FLAG-expressing BeWo cells were transfected with the GCM1 promoter reporter plasmid E1bLUCGCM1-2K for 48 h and then subjected to luciferase assays. […] BeWo cells and ITGA6-positive term CTBs were cultured under normoxic or hypoxic conditions for 72 h and 7 days, respectively. Cells were then harvested for quantitative RT-PCR analysis of GCM1, ΔNp63α, HTRA4, hCGβ, and MKI67. Means and standard deviations obtained from three independent experiments are presented.
To study the effect of EGF and chemical inhibitors on trophoblast differentiation, BeWo cells were cultured in the complete TS medium or in the incomplete TS medium with EGF alone or the indicated chemical inhibitor(s) for 24 h. Cells were then harvested for quantitative RT-PCR or immunoblotting analysis of expression of ΔNp63α, eomesodermin (EOMES), E74-like factor 5 (ELF5) or GCM1 and its target genes.

SMILES: CC(C)C[C@@H](C=O)NC(=O)[C@H](CC(C)C)NC(=O)[C@H](CC(C)C)NC(=O)OCc1ccccc1 [MG132] (Cbz-Leu-Leu-Leu-aldehyde)
- suppressive effect of FSK on ΔNp63α expression (ΔNp63α): counteracted
- VPA-mediated downregulation of GCM1 expression (BeWo cells): compromised
